Like-named read-outs stand apart in the source and are kept apart here.
What was measured:
MCF-7 cells [1] = experiment: Sulforhodamine B assay, proliferation of MCF-7 cells; format: cell-based, human; conditions: for IC50: MCF-7 breast cancer cells, one cell cycle (48 h), SRB
Experimental: (§1) The present invention further provides a Sulforhodamine B assay method for investigating the anti-cancer efficacies of the compounds of the present Pd—NHC series on MCF-7, HeLa, A549, B16-F10 and EMT6/AR1 cancer cell lines and also for a comparative study on normal skin cell line L929 and normal epithelial breast cells MCF10A. The said Sulforhodamine B assay is conducted as per reported method (Skehan et al., J. Natl. Cancer Inst. 1990, 82, 1107).
Experiment: The anti-proliferative activity of the present palladium N-heterocyclic carbene complexes on two different cancer cell lines MCF-7 and HeLa is tested using Sulforhodamine B assay to reveal their anti-tumor properties. The evaluation of growth inhibition of these complexes is done from their IC50 values for the inhibition of cell growth. The IC50 values are compared with Cisplatin to determine any increase in efficacy.
Method: The effects of present series of palladium N-heterocyclic carbene complexes, such as compounds (1S,2S,5R)-(1-3)b and (1R,2R,5S)-(1-3)b; (1S,2S,5R)-(1, 3)c and (1R,2R,5S)-(1, 3)c on the proliferation of MCF-7 cells after one cell cycle are determined by Sulforhodamine B assay. In particular, 1×10^5 cells/mL are seeded in each well in 96-well plates for 24 h and then incubated without or with different concentrations of these complexes at 37° C. for one cell cycle (48 h). After incubation of cells with the complexes for one cell cycle, cell growth is stopped by the addition of 50% trichloroacetic acid and stained with 0.4% sulforhodamine B dissolved in 1% acetic acid. Unbound dye is removed by washing with 1% acetic acid, and the protein content is determined by measuring absorbance at 520 nm in a Bio-Rad model 680 microplate reader after extracting with 10 mM tris base. IC50 value is calculated as the concentration of the complex that inhibited the proliferation of cells by 50% relative to the untreated control cells. The anticancer activities of the present Pd—NHC compounds are graphically represented in accompanying FIG. 1.
The data obtained is graphically represented in accompanying FIG. 2.

MCF-7 cells [2] = experiment: Live dead assay by flow cytometry using propidium iodide; format: cell-based, human; conditions: for Dead % / Live %: 48 h
Experimental: MCF-7 cells (5 mL) were seeded in 60 mm cell culture dishes at a density of 1.5×10^5 cells/mL. Cells were incubated with 4 and 8 μM (1R,2R,5S)-1c for 48 h for live dead assay. After the required incubation, cells were processed and analyzed by flow cytometry. Percentage of live and dead MCF-7 cells in the absence and presence of 4 and 8 μM (1R,2R,5S)-1c and 4 μM cisplatin was determined by flow cytometry using propidium iodide (PI).

L929 cells = experiment: Sulforhodamine B assay, normal skin cells L929 (selectivity); format: cell-based; conditions: L929 IC50 against B16-F10 IC50
Experimental: as §1

A549 cells = experiment: Sulforhodamine B assay, A549 lung cancer cells; format: cell-based, human; conditions: SRB
Experimental: as §1

Substance: trans-[1-(1R)-menthyl-4-(ethyl)-1,2,4-triazol-5-ylidene]2Pd(OCOCF3)2 [(1R,2R,5S)-1c]
- IC50 of Cisplatin against MCF-7 as multiple of IC50 of the complex (MCF-7 cells [1]; MCF-7): 27 times
- IC50 (MCF-7 cells [1]; read-out: IC50 (μM), MCF-7): 0.55 ± 0.02 µM
- IC50 (MCF-7 cells [1]; unit nM printed in cell or sentence, read-out: IC50, MCF-7 (values given in nM)): 0.55 ± 0.02 µM
- Cell death (in words) (MCF-7 cells [2]; MCF-7): leads to cell death in MCF-7 cells
- Dead % (MCF-7 cells [2]; MCF-7, 4 μM): 41 ± 2%
- Live % (MCF-7 cells [2]; MCF-7, 4 μM): 59 ± 2%
- Dead % (MCF-7 cells [2]; MCF-7, 8 μM): 90 ± 1%
- Live % (MCF-7 cells [2]; MCF-7, 8 μM): 10 ± 1%
- times more selective towards the cancer cells (B16-F10 vs L929) (L929 cells): around 8.1 times
- IC50 (A549 cells): 5.7 ± 1.6 µM

Source: patent US10421769B2, “Anticancer property studies of chiral palladium N-heterocyclic carbene complexes and process for preparation thereof” (Indian Institute of Technology Bombay, priority 2017, dated 2019)
